Measurements published in patent publication US11226337B2, “Chemoproteomic profiling of protein electrophilic and oxidative post-translational modifications” (Zenagem, LLC, priority 2017, dated 2022).

Assays:
Assay in all cases: gel-based RP-ABPP of transfected HEK293T cells
Format in all cases: cell-based
Conditions in all cases: transfected HEK293T cells vs mock
KEAP1 = molecular target: T1, KEAP1 (Homo sapiens, UniProt Q14145)
T1 construct: Full-length genes encoding three probe 1- and one probe 2-targeted proteins were amplified from a cDNA library; expressed in transfected cells; host or cells: HEK293T
T1 sequence (Q14145 whole entry): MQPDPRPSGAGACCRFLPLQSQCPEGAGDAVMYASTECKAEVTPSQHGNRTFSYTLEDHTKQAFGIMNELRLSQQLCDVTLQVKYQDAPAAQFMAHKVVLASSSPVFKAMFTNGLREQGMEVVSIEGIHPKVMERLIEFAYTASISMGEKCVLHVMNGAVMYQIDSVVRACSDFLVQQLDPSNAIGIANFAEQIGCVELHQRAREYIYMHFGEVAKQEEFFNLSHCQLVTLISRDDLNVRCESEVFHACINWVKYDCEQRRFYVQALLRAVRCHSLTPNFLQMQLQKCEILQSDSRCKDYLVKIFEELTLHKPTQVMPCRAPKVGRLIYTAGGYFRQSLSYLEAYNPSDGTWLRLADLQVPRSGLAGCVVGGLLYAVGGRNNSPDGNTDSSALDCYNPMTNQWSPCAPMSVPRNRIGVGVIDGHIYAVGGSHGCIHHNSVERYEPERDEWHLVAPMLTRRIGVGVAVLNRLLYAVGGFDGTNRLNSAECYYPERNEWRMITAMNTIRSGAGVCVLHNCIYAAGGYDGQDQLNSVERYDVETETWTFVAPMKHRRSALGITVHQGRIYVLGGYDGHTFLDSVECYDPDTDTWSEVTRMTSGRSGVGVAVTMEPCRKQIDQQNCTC
Method: (§1) Soluble proteomes from treated cells were diluted to 1 mg/mL. To each sample (50 μL), a freshly prepared “click” or CuAAC reagent mixture (6 μL) containing 0.1 mM tris(benzyltriazolylmethyl)amine (TBTA) (3 μL/sample, 1.7 mM in 4:1 DMSO:t-BuOH), 1 mM CuSO4 (1 μL/sample, 50 mM in H2O), 25 μM azide-rhodamine (1 μL/sample, 1.25 mM in DMSO), and freshly prepared 1 mM tris(2-carboxyethyl)phosphine (TCEP) (1 μL/sample, 50 mM in PBS or H2O) was added to conjugate the fluorophore to probe-labelled proteins. TBTA was purchased from TCI and azide-rhodamine was synthesized as previously described^64. Upon addition of the click mixture, each reaction was immediately mixed by vortexing and then allowed to react at ambient temperature for 1 hour before quenching the reactions with SDS loading buffer (4× stock, 17 μL). Proteins (˜25 μg total protein loaded per gel lane) were resolved by SDS-PAGE (10% acrylamide) and visualized by in-gel fluorescence scanning on a Hitachi FMBIO-II or BioRad ChemiDoc MP flatbed fluorescence scanner.
(§2) Full-length genes encoding three probe 1- and one probe 2-targeted proteins were amplified from a cDNA library derived from the same low-passage HEK293T cells used for proteomic profiling. The library was generated using Ribozol RNA extraction (Amresco) and iScript reverse transcription (Bio-rad) supermix reagents. The gene products were cloned into mammalian expression vectors containing N- or C-terminal FLAG affinity tags. The gene for S-adenosyl-L-methionine decarboxylase (AMD1 or AdoMetDC) was cloned into pFLAG-CMV-sport6 (N-terminal tag) at NotI and SalI restriction sites. AMD1, Secernin-3 (SCRN3) and fat mass- and obesity-associated Fe(II)- and 20G-dependent dioxygenase (FTO) were cloned into pRK5 (C-terminal tag) at SalI and NotI restriction sites. Kelch-like ECH-associated protein-1 (Keapl) (N-terminal tag), and empty plasmids of pRK5 were gifts. Full sequences of the genes were confirmed. The proteins expressed via transient transfection in HEK293T cells contain an additional 15 amino acids appended to their N-terminal methionine residue or C-terminus (MDYKD4KLKACGR (SEQ ID NO: 43) and A3G4DYKD4K (SEQ ID NO: 44), respectively). The DYKD4K (SEQ ID NO: 42) appendage in each contains the classic FLAG epitope that permits detection by western blotting or purification by affinity chromatography. Mutants of SCRN3 were generated using QuikChange site-directed mutagenesis with primers containing the desired mutations and their respective compliments. The gene for the deletion mutant of SCRN3 with the sequence MetlCys6-SCRN3 instead of Met1 Glu2Pro3Phe4Ser5Cys6-SCRN3 (SEQ ID NO: 45) was amplified from the wild-type C-terminal FLAG-tagged construct and cloned into the same vector.
(§3) HEK293T cells were grown to ˜40% confluence under standard growth conditions passaged in the appropriate media before adding the appropriate expression vector (control cells (‘mock’) received an equal amount of the appropriate empty vector) and polyethyleneimine (PEI) ‘MAX’ (MW 40,000, Polysciences Inc.) as a transfection reagent under standard transfection conditions (3:1 vector/PEI (w/w) ratio). Cells were incubated for ˜48 h before labelling in situ. Proteomes were processed for gel- and MS-based experiments as described above and in Example 2.
(§4) After scanning fluorescence, that same gel was transferred to nitrocellulose membrane in Towbin buffer, the membrane was blocked for ˜1 hour at ambient temperature with 5% nonfat dry milk (w/v) in Tris-buffered saline with Tween 20 (TBST) and incubated with primary antibodies in the same solution overnight at 4° C. The antibodies included anti-FLAG (1:2500, F1804, Sigma), anti-AdoMetDC (1:500, sc-160951, Santa Cruz Biotechnology) and anti-His6 (1:1000, ab18184, Abcam). The blots were washed (3×5 min, TBST), incubated with secondary antibodies (1:10,000, IRDye 800CW, LICOR) in milk for 1 hour at ambient temperature, washed again (3×5 min, TBST), and visualized on a LICOR Odyssey Scanner.

FTO = molecular target: T2, FTO (Homo sapiens, UniProt Q9C0B1)
T2 construct: Full-length genes encoding three probe 1- and one probe 2-targeted proteins were amplified from a cDNA library; expressed in transfected cells; host or cells: HEK293T
T2 sequence (Q9C0B1 whole entry): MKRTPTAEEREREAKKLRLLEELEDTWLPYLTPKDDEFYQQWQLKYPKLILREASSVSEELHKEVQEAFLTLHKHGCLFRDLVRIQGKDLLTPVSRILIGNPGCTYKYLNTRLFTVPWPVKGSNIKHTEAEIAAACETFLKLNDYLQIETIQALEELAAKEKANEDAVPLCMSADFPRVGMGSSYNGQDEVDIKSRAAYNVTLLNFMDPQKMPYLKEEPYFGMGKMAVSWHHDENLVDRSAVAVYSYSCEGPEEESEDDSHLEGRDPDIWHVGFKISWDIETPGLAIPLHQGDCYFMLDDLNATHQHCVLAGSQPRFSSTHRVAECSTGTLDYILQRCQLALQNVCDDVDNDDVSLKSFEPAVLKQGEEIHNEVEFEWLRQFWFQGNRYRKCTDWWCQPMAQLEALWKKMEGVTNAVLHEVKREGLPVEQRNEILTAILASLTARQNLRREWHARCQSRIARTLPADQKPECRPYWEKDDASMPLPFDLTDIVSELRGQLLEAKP
Method: as §1, §2, §3, §4

SCRN3 = molecular target: T3, SCRN3 (Homo sapiens, UniProt Q0VDG4)
T3 construct: Full-length genes encoding three probe 1- and one probe 2-targeted proteins were amplified from a cDNA library; expressed in transfected cells; host or cells: HEK293T
T3 sequence (Q0VDG4 6-424): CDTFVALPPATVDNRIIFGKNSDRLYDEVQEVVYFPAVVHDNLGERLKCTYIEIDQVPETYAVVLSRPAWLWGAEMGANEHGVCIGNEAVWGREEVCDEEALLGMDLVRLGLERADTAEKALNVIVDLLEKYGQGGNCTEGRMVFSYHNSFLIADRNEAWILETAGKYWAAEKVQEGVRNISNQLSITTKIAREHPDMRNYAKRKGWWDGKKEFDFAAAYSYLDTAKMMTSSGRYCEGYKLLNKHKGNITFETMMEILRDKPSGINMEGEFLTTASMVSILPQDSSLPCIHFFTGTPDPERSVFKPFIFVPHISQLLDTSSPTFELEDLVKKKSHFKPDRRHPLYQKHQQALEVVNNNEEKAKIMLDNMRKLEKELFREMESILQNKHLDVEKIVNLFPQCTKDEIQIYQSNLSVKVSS
Method: as §1, §2, §3, §4

AMD1 = molecular target: T4, AMD1 (Homo sapiens, UniProt P17707)
T4 construct: Full-length genes encoding three probe 1- and one probe 2-targeted proteins were amplified from a cDNA library; expressed in transfected cells; host or cells: HEK293T
T4 sequence (P17707 68-334 limits assumed): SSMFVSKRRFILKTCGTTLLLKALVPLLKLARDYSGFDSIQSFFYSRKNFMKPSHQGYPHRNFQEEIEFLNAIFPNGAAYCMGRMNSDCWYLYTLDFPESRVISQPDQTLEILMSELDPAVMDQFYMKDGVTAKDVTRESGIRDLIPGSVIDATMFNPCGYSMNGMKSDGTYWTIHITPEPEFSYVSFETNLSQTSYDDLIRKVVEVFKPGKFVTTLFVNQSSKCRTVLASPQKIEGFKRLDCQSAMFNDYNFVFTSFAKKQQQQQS
T4 sequence (P17707 1-67 limits assumed): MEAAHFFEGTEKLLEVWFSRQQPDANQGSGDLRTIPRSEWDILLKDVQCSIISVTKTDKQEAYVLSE
Method: Soluble proteomes from treated cells were diluted to 1 mg/mL. To each sample (50 μL), a freshly prepared “click” or CuAAC reagent mixture (6 μL) containing 0.1 mM tris(benzyltriazolylmethyl)amine (TBTA) (3 μL/sample, 1.7 mM in 4:1 DMSO:t-BuOH), 1 mM CuSO4 (1 μL/sample, 50 mM in H2O), 25 μM azide-rhodamine (1 μL/sample, 1.25 mM in DMSO), and freshly prepared 1 mM tris(2-carboxyethyl)phosphine (TCEP) (1 μL/sample, 50 mM in PBS or H2O) was added to conjugate the fluorophore to probe-labelled proteins. […] Upon addition of the click mixture, each reaction was immediately mixed by vortexing and then allowed to react at ambient temperature for 1 hour before quenching the reactions with SDS loading buffer (4× stock, 17 μL). Proteins (˜25 μg total protein loaded per gel lane) were resolved by SDS-PAGE (10% acrylamide) and visualized by in-gel fluorescence scanning on a Hitachi FMBIO-II or BioRad ChemiDoc MP flatbed fluorescence scanner. […]
After scanning fluorescence, that same gel was transferred to nitrocellulose membrane in Towbin buffer, the membrane was blocked for ˜1 hour at ambient temperature with 5% nonfat dry milk (w/v) in Tris-buffered saline with Tween 20 (TBST) and incubated with primary antibodies in the same solution overnight at 4° C. […]

Row | SMILES | probe labeling of recombinant protein, in-gel fluorescence (KEAP1) | probe labeling of recombinant protein, in-gel fluorescence (FTO) | probe labeling of recombinant protein, in-gel fluorescence (SCRN3) | probe labeling of recombinant protein, in-gel fluorescence (AMD1)
1 | C#CCNN.Cl [probe 1, prop-2-yn-1-ylhydrazine hydrochloride] | reacted with both probes 1 and 2 | selective reactivity with the aryl probe 2 over the alkyl probe 1 | reacted with both probes 1 and 2 | reacted with both probes 1 and 2
2 | C#CCCNC(=O)c1ccc(NN)cc1.Cl [probe 2, N-(but-3-yn-1-yl)-4-hydrazinylbenzamide hydrochloride] | reacted with both probes 1 and 2 | preferentially targeted by probe 2 | reacted with both probes 1 and 2 | reacted with both probes 1 and 2
